Results published in patent US20080269241A1, “BICYCLIC AMINOPROPYL TETRAHYDRO-PYRAZOLO-PYRIDINE MODULATORS OF CATHEPSIN S” (priority 2007, published 2008).

Target: T1, human cathepsin S (CatS) (Homo sapiens, UniProt P25774)
T1 construct: made in house; host or cells: baculovirus system (insect cells)
Assay: Recombinant human cathepsin S (CatS) fluorogenic substrate inhibition assay
Format: biochemical
Details: recombinant human CatS, 10 μM Z-Valine-Valine-Arginine-AMC, pH 5.0; average of results obtained; read-out: CatS IC50
Experimental: Recombinant human cathepsin S (CatS) was expressed in the baculovirus system and purified in one step with a thiopropyl-sepharose column. […] The assay is run in 150 mM sodium acetate pH 5.0 containing 1.5 mM DTT and 150 mM NaCl. […] Measurements are taken every min for 20 min. The rate is calculated from the slope of the increase in fluorescence and the percent inhibition is calculated from this.

T1 sequence (P25774 115-331): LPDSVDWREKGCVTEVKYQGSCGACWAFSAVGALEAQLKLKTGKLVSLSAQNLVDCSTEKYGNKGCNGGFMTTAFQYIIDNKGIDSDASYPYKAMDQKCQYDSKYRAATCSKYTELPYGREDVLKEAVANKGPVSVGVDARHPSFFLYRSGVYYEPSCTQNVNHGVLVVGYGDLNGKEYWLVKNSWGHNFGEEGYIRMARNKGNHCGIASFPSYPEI

Compound	IC50 [nM]
CS(=O)(=O)N1CCc2c(c(-c3ccc(Cl)c(CNC(=O)c4ccc(F)cc4)c3)nn2CC(O)CN2CCC(N3CCCC3=O)CC2)C1 (stereo not drawn) [Example 1, N-[2-Chloro-5-(1-{2-hydroxy-3-[4-(2-oxo-pyrrolidin-1-yl)-piperidin-1-yl]-propyl}-5-methanesulfonyl-4,5,6,7-tetrahydro-1H-pyrazolo[4,3-c]pyridin-3-yl)-benzyl]-4-fluoro-benzamide]	20
CS(=O)(=O)N1CCc2c(c(-c3ccc(C(F)(F)F)c(CNC(=O)c4ccc(Cl)s4)c3)nn2CC(O)CN2CCC(N3CCCC3=O)CC2)C1 (stereo not drawn) [Example 6, 5-Chloro-thiophene-2-carboxylic acid 5-(1-{2-hydroxy-3-[4-(2-oxo-pyrrolidin-1-yl)-piperidin-1-yl]-propyl}-5-methanesulfonyl-4,5,6,7-tetrahydro-1H-pyrazolo[4,3-c]pyridin-3-yl)-2-trifluoromethyl-benzylamide]	30
CS(=O)(=O)N1CCc2c(c(-c3ccc(Cl)c(CNC(=O)c4ccc(F)cc4)c3)nn2CC(O)CN2CCC(N3CCCC3)CC2)C1 (stereo not drawn) [Example 14, N-(2-Chloro-5-{1-[2-hydroxy-3-(4-pyrrolidin-1-yl-piperidin-1-yl)-propyl]-5-methanesulfonyl-4,5,6,7-tetrahydro-1H-pyrazolo[4,3-c]pyridin-3-yl}-benzyl)-4-fluoro-benzamide]	100
CS(=O)(=O)N1CCc2c(c(-c3ccc(C(F)(F)F)c(CNC(=O)c4ccc(F)cc4)c3)nn2CC(O)CN2CCC(N3CCCC3=O)CC2)C1 (stereo not drawn) [Example 17, 4-Fluoro-N-[5-(1-{2-hydroxy-3-[4-(2-oxo-pyrrolidin-1-yl)-piperidin-1-yl]-propyl}-5-methanesulfonyl-4,5,6,7-tetrahydro-1H-pyrazolo[4,3-c]pyridin-3-yl)-2-trifluoromethyl-benzyl]-benzamide]	20
CC(C)=CC(=O)NCc1cc(-c2nn(CC(O)CN3CCC(N4CCOCC4)CC3)c3c2CN(S(C)(=O)=O)CC3)ccc1C(F)(F)F (stereo not drawn) [Example 30, 3-Methyl-but-2-enoic acid 5-{1-[2-hydroxy-3-(4-morpholin-4-yl-piperidin-1-yl)-propyl]-5-methanesulfonyl-4,5,6,7-tetrahydro-1H-pyrazolo[4,3-c]pyridin-3-yl}-2-trifluoromethyl-benzylamide]	40

Second part, the compound after the results:

IC50 [nM]	Compound
80	CC(C)CC(=O)NCc1cc(-c2nn(CCCN3CCC(N4CCCC4=O)CC3)c3c2CN(S(C)(=O)=O)CC3)ccc1C(F)(F)F [Example 36, N-[5-(5-Methanesulfonyl-1-{3-[4-(2-oxo-pyrrolidin-1-yl)-piperidin-1-yl]-propyl}-4,5,6,7-tetrahydro-1H-pyrazolo[4,3-c]pyridin-3-yl)-2-trifluoromethyl-benzyl]-3-methyl-butyramide]
480	CS(=O)(=O)N1CCc2c(c(-c3ccc(C(F)(F)F)c(CNC(=O)Cc4ccccc4)c3)nn2CCCN2CCC(N3CCCC3=O)CC2)C1 [Example 37, N-[5-(5-Methanesulfonyl-1-{3-[4-(2-oxo-pyrrolidin-1-yl)-piperidin-1-yl]propyl}-4,5,6,7-tetrahydro-1H-pyrazolo[4,3-c]pyridin-3-yl)-2-trifluoromethyl-benzyl]-2-phenyl-acetamide]
1540	CN(C)CC(=O)NCc1cc(-c2nn(CCCN3CCC(N4CCCC4=O)CC3)c3c2CN(S(C)(=O)=O)CC3)ccc1C(F)(F)F [Example 38, 2-Dimethylamino-N-[5-(5-methanesulfonyl-1-{3-[4-(2-oxo-pyrrolidin-1-yl)-piperidin-1-yl]-propyl}-4,5,6,7-tetrahydro-1H-pyrazolo[4,3-c]pyridin-3-yl)-2-trifluoromethyl-benzyl]-acetamide]
30	CC(C)=CC(=O)NCc1cc(-c2nn(CCCN3CCC(N4CCCC4=O)CC3)c3c2CN(S(C)(=O)=O)CC3)ccc1C(F)(F)F [Example 42, 3-Methyl-but-2-enoic acid 5-(5-methanesulfonyl-1-{3-[4-(2-oxo-pyrrolidin-1-yl)-piperidin-1-yl]-propyl}-4,5,6,7-tetrahydro-1H-pyrazolo[4,3-c]pyridin-3-yl)-2-trifluoromethyl-benzylamide]
